Data: article PMC10133576, “Interactions between curcumin and human salt-induced kinase 3 elucidated from computational tools and experimental methods” (Frontiers in Pharmacology, 2023)
pIC50: −log10 of the molar value.

Target: human salt-induced kinase 3 (SIK3) (Homo sapiens, UniProt Q9Y2K2)
Test: KinaseProfiler radiometric protein kinase assay (Eurofins), ATP at Km
Format: biochemical

Sequence of human salt-induced kinase 3 (SIK3) (Q9Y2K2 whole entry): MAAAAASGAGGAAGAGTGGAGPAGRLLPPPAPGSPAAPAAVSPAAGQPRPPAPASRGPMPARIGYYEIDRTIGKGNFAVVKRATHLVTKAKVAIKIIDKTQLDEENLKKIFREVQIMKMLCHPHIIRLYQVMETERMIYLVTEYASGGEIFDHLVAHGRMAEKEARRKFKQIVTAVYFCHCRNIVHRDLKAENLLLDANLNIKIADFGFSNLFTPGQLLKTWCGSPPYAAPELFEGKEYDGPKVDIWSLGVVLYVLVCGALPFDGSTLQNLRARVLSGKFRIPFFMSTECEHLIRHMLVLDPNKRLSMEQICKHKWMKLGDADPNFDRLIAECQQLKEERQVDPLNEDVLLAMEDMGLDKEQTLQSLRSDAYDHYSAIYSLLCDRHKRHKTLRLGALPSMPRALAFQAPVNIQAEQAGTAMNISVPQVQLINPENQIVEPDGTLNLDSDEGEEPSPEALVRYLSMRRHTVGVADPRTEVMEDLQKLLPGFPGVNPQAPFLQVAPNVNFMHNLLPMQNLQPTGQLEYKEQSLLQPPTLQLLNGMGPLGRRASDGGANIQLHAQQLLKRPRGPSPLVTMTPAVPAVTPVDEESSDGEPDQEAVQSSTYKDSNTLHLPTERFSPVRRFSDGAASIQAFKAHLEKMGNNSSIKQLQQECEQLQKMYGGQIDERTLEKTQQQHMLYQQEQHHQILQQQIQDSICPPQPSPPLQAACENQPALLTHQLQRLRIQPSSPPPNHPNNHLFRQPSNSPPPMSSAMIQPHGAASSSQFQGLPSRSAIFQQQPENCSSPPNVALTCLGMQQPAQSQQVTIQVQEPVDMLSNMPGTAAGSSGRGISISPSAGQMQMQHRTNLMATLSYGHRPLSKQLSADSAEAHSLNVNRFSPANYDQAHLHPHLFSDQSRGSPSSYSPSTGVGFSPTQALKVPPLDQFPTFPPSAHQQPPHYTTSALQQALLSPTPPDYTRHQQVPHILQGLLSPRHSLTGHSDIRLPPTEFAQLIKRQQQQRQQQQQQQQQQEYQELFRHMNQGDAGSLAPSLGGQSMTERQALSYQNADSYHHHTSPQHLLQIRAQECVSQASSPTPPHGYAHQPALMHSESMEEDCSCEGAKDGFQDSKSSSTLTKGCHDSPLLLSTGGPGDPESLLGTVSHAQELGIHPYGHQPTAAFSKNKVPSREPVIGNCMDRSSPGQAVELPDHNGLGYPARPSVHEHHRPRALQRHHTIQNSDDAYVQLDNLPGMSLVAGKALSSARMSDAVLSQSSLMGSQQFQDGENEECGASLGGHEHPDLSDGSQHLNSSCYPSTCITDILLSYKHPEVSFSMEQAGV

COc1cc(/C=C/C(=O)CC(=O)/C=C/c2ccc(O)c(OC)c2)ccc1O [curcumin]
pIC50: 6.88
